Data from US4877727A, “Substrate for determining leucine aminopeptidase or gamma-glutamyltranspeptase activity” (Kyowa Medex Co., Ltd., priority 1984, dated 1989).

Experiments:
[1] = Maximum wavelength of formed pigment; format: physicochemical
Procedure: 50 μl of 1 mM each free compound was added to 3 ml of 0.1M phosphate buffer containing 0.5 mg/ml EMSE and 1 U/ml laccase and the mixture was incubated at 37° C. for 5 minutes. The absorption of the reaction solution at λmax was measured. As a control, 5-aminosalicylic acid was used and the reaction of the compound with 2,6-xylenol was carried out in the presence of metaperiodate under strong alkaline conditions.

Stability of pigment = format: physicochemical
[2] = target: T1, γ-glutamyltranspeptidase (γ-GTP) (Homo sapiens, UniProt P19440); experiment: γ-GTP determination in serum (Example 3); format: biochemical; conditions: found with the compound as substrate; standard serum 235 mU/ml; 37° C., 5 minutes; wavelength of Table 2
T1 construct: from tissue; host or cells: serum
T1 sequence (P19440 1-380 limits assumed): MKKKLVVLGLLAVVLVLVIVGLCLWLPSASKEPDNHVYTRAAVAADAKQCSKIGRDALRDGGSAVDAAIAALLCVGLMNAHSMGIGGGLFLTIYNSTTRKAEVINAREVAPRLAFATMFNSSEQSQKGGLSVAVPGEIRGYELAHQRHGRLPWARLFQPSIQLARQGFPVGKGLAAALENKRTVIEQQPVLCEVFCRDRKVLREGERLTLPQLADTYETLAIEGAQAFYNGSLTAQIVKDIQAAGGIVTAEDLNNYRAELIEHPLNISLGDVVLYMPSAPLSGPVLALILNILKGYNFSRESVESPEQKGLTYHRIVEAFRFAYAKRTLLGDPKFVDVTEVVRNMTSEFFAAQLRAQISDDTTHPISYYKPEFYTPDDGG
T1 sequence (P19440 381-569 limits assumed): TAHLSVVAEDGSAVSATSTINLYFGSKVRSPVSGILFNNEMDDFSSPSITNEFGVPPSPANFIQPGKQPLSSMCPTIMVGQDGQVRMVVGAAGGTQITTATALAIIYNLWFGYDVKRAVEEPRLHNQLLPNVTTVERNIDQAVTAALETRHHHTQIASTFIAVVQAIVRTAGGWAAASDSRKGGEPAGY
Procedure: In this example, 500 mg of compound Nos. 1, 3, 5, 7 and 9 each and 500 mg of glycylglycine were dissolved in 100 ml (pH=7.7) and 0.1M phosphate buffer. The resultant solutions were designated A-1, A-3, A-5, A-7 and A-9, respectively. 50 mg of 3-{N-(m-tolyl)-N-ethyl}amino-2-hydroxypropane sulfonic acid was dissolved in 100 ml of phosphate buffer solution to obtain solution B. 50 mg/ml sodium meta-periodate containing 1N-HCl solution was prepared as solution C.
6 ml of solution A-1, A-3, A-5, A-7 or A-9 was equally poured to 3 test tubes. The samples were incubated at 37° C. and to the solution was added […] of (a) serum sample (b) standard serum or (c) water. The mixtures were stirred and heated for 5 minutes. After 5 minutes had passed, 1 ml of solution B and 1 ml of solution C were added to each of the mixtures and the mixtures were incubated for 10 minutes after stirring. As the standard serum, a serum having 235 mU/ml of γ-GTP was used.
The γ-GTP activity of the serum sample can be calculated by the following equation. [formula]

Solubility of substrate = format: physicochemical; conditions: read-out: S: Solubility

Compound	λmax: Maximum wavelength [1] [nm]	ST: Stability of pigment (Stability of pigment) [%]	γ-GTP activity of the serum sample [2] [mU/ml]	solubility (Solubility of substrate) [mg/mL]
N[C@@H](CCC(=O)Nc1ccc(N(CCCS(=O)(=O)O)CCCS(=O)(=O)O)c(S(=O)(=O)O)c1)C(=O)O [compound 7]	680	93	240	> 20
N[C@@H](CCC(=O)Nc1ccc(N(CCCS(=O)(=O)O)CCCS(=O)(=O)O)c(Cl)c1)C(=O)O [compound 9]	685	> 98	242	> 200
